Results taken from US7863239B2, “Binding compounds, immunogenic compounds and peptidomimetics” (Pepscan Systems B.V., priority 2005, dated 2011).
“Also recorded” adds a separate entry of the source. *1 amine or outer side, *2 acyl side, *3 side chain or, on linkers, in order; H or OH if unused. Bridges are numbered along the chain shown (N, C = ends). Where no end group is shown, it is not given here. T4 = 1,2,4,5-tetrabromodurene scaffold; mXylylene = c1cc(C[*:1])cc(C[*:2])c1

Tests used:
anti-CCR5 antibody 2D7 = test: Screening of peptide microarrays with anti-CCR5 antibody 2D7; assay type: binding; conditions: absorbance at 405 nm measured using a CCD-camera; for 2D7 (0.1 μg/ml): mAb 2D7 at 0.1 μg/ml on peptide microarray; for 2D7 (1 μg/ml): mAb 2D7 at 1 μg/ml on peptide microarray; for 2D7 (10 μg/ml): mAb 2D7 at 10 μg/ml on peptide microarray
Experimental: Grafting of the polypropylene support with polyacrylic acid was performed by irradiating the support in a 6% acrylic acid solution containing CUS04 using gamma radiation at a dose of 12 kGy. The grafted solid support containing carboxylic acid groups was subsequently reacted with t-butyloxycarbonyl-hexamethylenediamine (Boc-HMDA) using dicyclohexylcarbodiimide (DCC) with N-hydroxybenzotriazole (HOBt) and subsequent cleavage of the Boc-groups using trifluoroacetic acid (TFA). The peptides were synthesized using standard Fmoc-chemistry and, after acylation, deprotected by reaction with TFA (15 ml/g resin) containing 13.3% (w) phenol, 5% (v) thioanisole, 2.5% (v) 1,2-ethanedithiol, and 5% (v) milliQ-H2O for 2-4 hrs at RT. After washing 3× with H2O, the peptide microarrays were treated with excess of a 1.0 mM solution of either mP2 or T3 in 20 mM amm. bicarbonate (pH 7.8)/acetonitril (1:1 v/v) for 30-60 min. at room temperature, followed by 3× washing with 50% ACN/H2O. Then, the microarrays were washed with excess of millipore H2O and sonicated in disrupt-buffer (1% SDS/0.1% β-mercaptoethanol (BME) in phosphate buffered saline (PBS), pH 7.2) at 70° C. for 30 min. followed by sonication in millipore H2O for another 45 min. Synthese Van Scaffolds: The scaffolds are commercially available by Aldrich. Screening of Micro-Arrays with Antibodies Microarrays were pretreated with PBS for 30 min. followed by precoating with incubation buffer (PBS containing 5% ovalbumin, 5% horse serum and 1% Tween-80) for 1 hour. Then, the microarrays were incubated with mAb (typically 1/1000, diluted in incubation buffer) overnight at 4° C. After washing (3×10 min.) with PBS/Tween-80 (0.05%), the peptides were incubated with peroxidase labeled rabbit anti-mouse antibody for 1 hr at 25° C. (rampo, 1/1000; Dako, Glostrup, Denmark) and subsequently, after washing again (3×10 min.) with PBS/Tween-80 (0.05%), incubated with the peroxidase substrate 2,2′-azino-di-3-ethylbenzthiazoline sulfonate (ABTS; 50 mg in 100 ml 0.1M citric acid-sodium phosphate (McIlvaine) buffer (pH 4.0) containing 20 ul 30% H2O2). After 1 h the absorbance (at 405 nm) was measured using a CCD-camera (XC-77RR, Sony, Japan). Bound mAb was removed by sonication in disrupt-buffer as described above. The micro-arrays were re-used for screening approximately 10-15 times. CCR5 CCR5 is a […] co-receptor that is used by HIV for cellular entry. Antibodies specifically directed against CCR5 would therefore be suitable for counteracting cellular entry by HIV. However, immunization with whole CCR5 is problematic since CCR5 is a transmembrane protein. In order to be capable of eliciting CCR5-specific antibodies, immunogenic compounds based on CCR5 are therefore desired. In order to design suitable test compounds, 4 CCR5 sequences were taken into account: one N-terminus domain (Nt) and three extracellular loop domains extended with about 1-6 adjacent amino acid residues of the transmembrane domains (N-terminally as well as C-terminally). These extracellular loop domains are called e1, e2 and e3. The primary sequences of the considered domains are as follows (starting N-terminally):
In the first series of peptides (first row of the above Table), the C-terminal amino acids K, I, N, V, K, Q, I, and A of the Nt sequence were selected. Subsequently, N-terminal flanking sequences with a length of 21 amino acid residues were selected. […] Subsequently, peptides were produced containing one of these flanking sequences. Likewise, in the second series of peptides (second row of the above Table), the C-terminal amino acids P, C, Q, K, I, N, V and K of the Nt sequence were selected. Subsequently, N-terminal flanking sequences with a length of 18 amino acid residues were selected. […] Subsequently, peptides were produced containing one of these flanking sequences. […]

FSH = test: Vaccination of rats with FSH-derived peptides, antisera analyzed in FSH-binding ELISA; conditions: rat, in vivo
Experimental: Peptides were synthesized by solid-phase peptide synthesis using a 4-(2′,4′-dimethoxyphenyl-Fmoc-aminomethyl)-phenoxy (RinkAmide) resin (BACHEM, Germany) on a Syro-synthesizer (MultiSynTech, Germany). All amino acids were purchased and used as N-alpha-(Fmoc) protected with side-chain functionalities protected as N-t-Boc (KW), O-t-Bu (DESTY), N-Trt (HNQ), S-Trt (C), or N-Pbf (R) groups. A coupling protocol using a 6.5-fold excess of HBTU/HOBt/amino acid/DIPEA (1:1:1:2) in NMP with a 30 min. activation time using double couplings was employed. […] Subsequently, female Wistar rats were immunized on day 0 with 400 uL of a ˜2.5 mg/mL of the peptide or peptide-T-construct in PBS/CFA 1:1 (v/v) (PBS=Phosphate-Buffered Saline, CFA=Complete Freund's Adjuvance), followed by a booster (same quantity and concentration) at 4 weeks. Subsequently, the anti-peptide titers were determined after 6 weeks to check for immune response and finally the rats were bleeded after 8 weeks and the antisera collected. Antisera were analyzed in an FSH-binding ELISA (Greiner, PS; GDA-coating with 1 μg/mL of FSH (Biotrend)) using 2,2′-azine-di(ethylbenzthiazoline sulfonate) (ABTS) in combination with a peroxidase-labeled Goat-anti-rat serum as second antibody. […]

Row | Substance | 2D7 (0.1 μg/ml) (anti-CCR5 antibody 2D7) | 2D7 (1 μg/ml) (anti-CCR5 antibody 2D7) | 2D7 (10 μg/ml) (anti-CCR5 antibody 2D7) | immune response against native FSH in rats (in words) (FSH; listed as TFKELVYETCRVPGAAHHADSLCTYPVATQAH cyclized onto m-T2) | immune response against native FSH in rats (in words) (FSH)
1 | CQKEGLHYTC (SEQ ID NO: 101) (not fully specified; bound to P2 or T3 scaffold) [compound 447] | 261 | 2706 | 2943 | – | –
2 | CQKEGLHYC (SEQ ID NO: 102) (not fully specified; bound to P2 or T3 scaffold) [compound 443] | 148 | 2636 | 3090 | – | –
3 | CWDFGNTMCQKEGLHYTC (SEQ ID NO: 104) (not fully specified; bound to P2 or T3 scaffold) [compound 1160] | 315 | 2469 | 2765 | – | –
4 | CNTMGGGRSQKEGLHYTC (SEQ ID NO: 106) (not fully specified; bound to P2 or T3 scaffold) [compound 702] | 68 | 1580 | 2787 | – | –
5 | CRSQKEGLHYTC (SEQ ID NO: 105) [compound 450] | 107 | 2364 | 2852 | – | –
6 | *TFKELVYETCRVPGAAHHADSLCTYPVATQAH# (SEQ ID NO: 119) + m-T2 (TFKELVYETCRVPGAAHHADSLCTYPVATQAH-NH2; linker 10-23 via mXylylene (inferred)) [No. 4 (Table 4B), FSH-derived CLIPS peptide] | – | – | – | production of antibodies that are reactive with native FSH; also recorded: very high antibody titre | –
7 | CQWDFGNTCQKEGLHYTC (SEQ ID NO: 107) (not fully specified; bound to P2 or T3 scaffold) [compound 1159] | 213 | 1153 | 2636 | – | –
8 | *KIQKTATFKELVYETCRVPGAAHHADSLCTYPVATQAHAGK# (SEQ ID NO: 120) T4 (KIQKTATFKELVYETCRVPGAAHHADSLCTYPVATQAHAGK-NH2; linker 16-29 via T4 (inferred)) [No. 9 (Table 4B), FSH-derived CLIPS peptide] | – | – | – | – | Good results
9 | CFGNTMGGGRSQKEGLHYTC (SEQ ID NO: 108) (not fully specified; bound to P2 or T3 scaffold) [compound 719] | 113 | 678 | 2819 | – | –
10 | CAQWDFGNCQKEGLHYTC (SEQ ID NO: 109) (not fully specified; bound to P2 or T3 scaffold) [compound 1158] | 132 | 416 | 2377 | – | –
11 | CSQKEGLHYTC (SEQ ID NO: 103) (not fully specified; bound to P2 or T3 scaffold) [compound 449] | 99 | 2606 | 2889 | – | –
